These results are taken from patent US5244898A, “Benzoheterocyclic compounds” (Otsuka Pharmaceutical Co., Ltd., priority 1991, dated 1993).

Broadly, the IC50 is the concentration that gives 50% inhibition. Read a low IC50 as greater potency in that assay.

Where a name gives a salt, the structure may show the parent alone.

T1 sequence (Q00788 whole entry): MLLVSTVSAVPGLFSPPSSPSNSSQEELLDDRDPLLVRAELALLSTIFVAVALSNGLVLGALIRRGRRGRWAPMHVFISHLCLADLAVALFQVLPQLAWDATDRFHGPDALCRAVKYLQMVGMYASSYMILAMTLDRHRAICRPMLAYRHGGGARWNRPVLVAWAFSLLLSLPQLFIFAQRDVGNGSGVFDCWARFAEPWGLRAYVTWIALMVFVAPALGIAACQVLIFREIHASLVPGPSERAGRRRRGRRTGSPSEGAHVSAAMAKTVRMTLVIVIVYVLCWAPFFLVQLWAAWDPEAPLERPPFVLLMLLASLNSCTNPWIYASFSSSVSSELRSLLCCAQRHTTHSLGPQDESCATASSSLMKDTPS

This assay concerns the target T1, V2 Receptor (Rattus norvegicus, UniProt Q00788).
T1 construct: rat kidney plasma membrane preparations; from tissue; host or cells: rat kidney plasma membranes
The experiment in a line: V2 Receptor Binding Assay ([3H]-Arg-vasopressin, rat kidney plasma membrane). Conditions: 4° C., pH 8.0.
Experimental: Chem., 253, 3211 (1978)], the plasma membrane (100000 dpm, 4×10^-10M) of [^3 H]-Arg-vasopressin and a test compound (0.6 mg, 10^-10 -10^-5 M) are incubated at 4° C. for 3 hours in 100 mM Tris-HCl buffer pH: 8.0 (250 μl ) containing 5 mM MgCl2, 1 mM EDTA and 0.1 % BSA. After incubation, the mixture is filtered using the glass filter (GF/F) so as to separate the membrane preparation combining with vasopressin and then washed twice with the buffer (5 ml). This glass filter is taken out and mixed with liquid scintillation cocktail. The amount of [^3 H]-vasopressin combining with the membrane is measured by liquid scintillation counter and the rate of the inhibitory effect of the test compound is estimated according to the following equation. [formula]
C1 : The amount of [^3 H]-vasopressin combining with the membrane in the presence of the test compound of a known amount.
C0 : The amount of [^3 H]-vasopressin combining with the membrane in the absence of the test compound.
B1 : The amount of [3H-vasopressin combining with the membrane in the presence of the excess amount of vasopressin (10^-6 M).
The results are expressed as IC50 value, which is the concentration of the test compound required to achieve the inhibitory effect in the rate of 50%.
`CSCC[C@H](N)C(=O)OC1CCCN(C(=O)c2ccc(NC(=O)c3ccccc3C)cc2Cl)c2ccccc21` (single isomer, unassigned) [Test Compound 10, 5-(L-Methionyloxy)-1-[2-chloro-4-(2-methylbenzoylamino)benzoyl]-2,3,4,5-tetrahydro-1H-benzazepine hydrochloride] returned an IC50 of 83 nM.

Take `Cc1ccccc1C(=O)Nc1ccc(C(=O)N2CCCC(OC(=O)[C@@H]3CCCN3)c3ccccc32)c(Cl)c1` (single isomer, unassigned) [Test Compound 12, 5-(L-Prolyloxy)-1-[2-chloro-4-(2-methylbenzoylamino)benzoyl]-2,3,4,5-tetrahydro-1H-benzazepine hydrochloride]: the IC50 came to 9 nM.

For the molecule `CN(C)C1CCCN(C(=O)c2ccc(NC(=O)Cc3ccccc3Cl)cc2)c2ccccc21` (stereo not drawn) [Test Compound 3, 5-Dimethylamino-1-{4-[2-(2-chlorophenyl)acetylamino]benzoyl}-2,3,4,5-tetrahydro-1H-benzazepine], the IC50 came to 61 nM.

As to `COc1ccccc1CC(=O)Nc1ccc(C(=O)N2CCCC(N(C)C)c3ccccc32)cc1` (stereo not drawn) [Test Compound 4, 5-Dimethylamino-1-{4-[2-(2-methoxyphenyl)acetylamino]benzoyl}-2,3,4,5-tetrahydro-1H-benzazepine], the IC50 stood at 61 nM.

In turn, `CN(C)C1CCCN(C(=O)c2ccc(NC(=O)Cc3ccccc3F)cc2)c2ccccc21` (stereo not drawn) [Test Compound 5, 5-Dimethylamino-1-{4-[2-(2-fluorophenyl)acetylamino]benzoyl}-2,3,4,5-tetrahydro-1H-benzazepine] registered an IC50 of 59 nM.

Molecule `CN(C)C1CCCN(C(=O)c2ccc(NC(=O)Cc3ccccc3[N+](=O)[O-])cc2)c2ccccc21` (stereo not drawn) [Test Compound 7, 5-Dimethylamino-1-{4-[2-(2-nitrophenyl)acetylamino]benzoyl}-2,3,4,5-tetrahydro-1H-benzazepine] registered an IC50 of 140 nM.

`CN(C)C1CCCN(C(=O)c2ccc(NC(=O)c3ccccc3Cl)cc2Cl)c2ccc(O)cc21` (stereo not drawn) [Test Compound 8, 5-Dimethylamino-7-hydroxy-1-[2-chloro-4-(2-chlorobenzoylamino)benzoyl]-2,3,4,5-tetrahydro-1H-benzazepine] had a concentration for half-maximal inhibition (IC50) of 250 nM.

The molecule `Cc1ccccc1C(=O)Nc1ccc(C(=O)N2CCCC(OC(=O)[C@H](C)N)c3ccccc32)c(Cl)c1` (stereo partly drawn) [Test Compound 9, 5-(L-Alanyloxy)-1-[2-chloro-4-(2-methylbenzoylamino)benzoyl]-2,3,4,5-tetrahydro-1H-benzazepine hydrochloride] registered an IC50 of 17 nM.

`CC(=O)Oc1ccc2c(c1)C(N(C)C)CCCN2C(=O)c1ccc(NC(=O)c2ccccc2Cl)cc1Cl` (stereo not drawn) [Test Compound 11] came in with an IC50 of 110 nM.

In turn, `O=C(Nc1ccc(C(=O)N2CCCC(O)(CO)c3cc(O)ccc32)c(Cl)c1)c1ccccc1Cl` (stereo not drawn) [Test Compound 19, 5,7-Dihydroxy-5-hydroxymethyl-1-[2-chloro-4-(2-chlorobenzoylamino)benzoyl]-2,3,4,5-tetrahydro-1H-benzazepine] came in with an IC50 of 2800 nM.

Molecule `CN(C)C(=O)COc1ccc2c(c1)C(N(C)C)CCCN2C(=O)c1ccc(NC(=O)c2ccccc2Cl)cc1Cl` (stereo not drawn) [Test Compound 20, 5-Dimethylamino-7-dimethylaminocarbonylmethoxy-1-[2-chloro-4-(2-chlorobenzoylamino)benzoyl]-2,3,4,5 tetrahydro-1H-benzazepine] had an IC50 of 5600 nM.

In turn, `CCOC(=O)CNC(=O)COC1CCCN(C(=O)c2ccc(NC(=O)c3ccccc3C)cc2Cl)c2ccc(F)cc21` (stereo not drawn) [Test Compound 21, 5-Ethoxycarbonylmethylaminocarbonylmethoxy-7-fluoro-1-[2-chloro-4-(2-methylbenzoylamino)benzoyl]-2,3,4,5-tetrahydro-1H-benzazepine] came in with a 50% inhibitory concentration (IC50) of 6 nM.
